From paper PMC10046369, “Low-Affinity/High-Selectivity Dopamine Transport Inhibition Sufficient to Rescue Cognitive Functions in the Aging Rat” (Biomolecules, 2023)

Experiments:
[1] = biological target: T1, human dopamine transporter (hDAT) (Homo sapiens, UniProt Q01959); test: radioligand competition binding ([3H]BTCP), hDAT expressed in CHO cells; format: cell-based
T1 construct: gene SLC6A3

ERK5 = biological target: T2, ERK5 (Homo sapiens, UniProt Q13164); test: biochemical; set-up: KINOMEscan competition binding panel, per cent of control; details: read-out: %Ctrl @ 2800nM
T2 construct: gene MAPK7
T2 sequence (Q13164 whole entry): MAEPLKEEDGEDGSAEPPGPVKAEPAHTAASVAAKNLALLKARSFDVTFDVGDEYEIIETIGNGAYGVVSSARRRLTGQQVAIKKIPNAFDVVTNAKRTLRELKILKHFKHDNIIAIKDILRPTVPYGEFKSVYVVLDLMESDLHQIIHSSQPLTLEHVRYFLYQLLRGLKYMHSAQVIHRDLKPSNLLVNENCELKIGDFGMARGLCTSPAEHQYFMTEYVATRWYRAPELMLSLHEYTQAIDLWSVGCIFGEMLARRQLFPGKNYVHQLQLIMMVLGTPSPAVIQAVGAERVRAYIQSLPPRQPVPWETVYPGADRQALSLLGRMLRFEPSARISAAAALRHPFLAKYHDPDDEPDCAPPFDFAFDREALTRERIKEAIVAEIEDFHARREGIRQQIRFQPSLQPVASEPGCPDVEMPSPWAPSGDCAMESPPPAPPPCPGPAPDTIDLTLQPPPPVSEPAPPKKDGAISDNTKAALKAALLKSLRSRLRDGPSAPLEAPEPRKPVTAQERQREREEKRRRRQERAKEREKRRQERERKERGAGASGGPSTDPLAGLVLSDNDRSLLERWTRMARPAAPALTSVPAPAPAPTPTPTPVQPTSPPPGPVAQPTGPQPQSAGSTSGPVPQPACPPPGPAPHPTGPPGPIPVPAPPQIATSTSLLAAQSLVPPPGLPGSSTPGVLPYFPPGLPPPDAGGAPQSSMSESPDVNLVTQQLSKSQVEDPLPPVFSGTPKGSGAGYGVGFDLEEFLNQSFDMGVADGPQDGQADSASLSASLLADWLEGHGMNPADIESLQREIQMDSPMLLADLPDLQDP
Summary of the method: (§1)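 Values are expressed as percent of control, calculated as ((test − positive control)/(negative control − positive control)) × 100, so lower numbers mean stronger hits. Binding was measured by KINOMEscan competition assay in a 450-kinase human panel including disease mutants, using the contractor's validated protocol.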

PRKCD = PRKCD (Homo sapiens, UniProt Q05655); test: biochemical; set-up: KINOMEscan competition binding panel, per cent of control; details: read-out: %Ctrl @ 2800nM
Chain of PRKCD (Q05655 whole entry): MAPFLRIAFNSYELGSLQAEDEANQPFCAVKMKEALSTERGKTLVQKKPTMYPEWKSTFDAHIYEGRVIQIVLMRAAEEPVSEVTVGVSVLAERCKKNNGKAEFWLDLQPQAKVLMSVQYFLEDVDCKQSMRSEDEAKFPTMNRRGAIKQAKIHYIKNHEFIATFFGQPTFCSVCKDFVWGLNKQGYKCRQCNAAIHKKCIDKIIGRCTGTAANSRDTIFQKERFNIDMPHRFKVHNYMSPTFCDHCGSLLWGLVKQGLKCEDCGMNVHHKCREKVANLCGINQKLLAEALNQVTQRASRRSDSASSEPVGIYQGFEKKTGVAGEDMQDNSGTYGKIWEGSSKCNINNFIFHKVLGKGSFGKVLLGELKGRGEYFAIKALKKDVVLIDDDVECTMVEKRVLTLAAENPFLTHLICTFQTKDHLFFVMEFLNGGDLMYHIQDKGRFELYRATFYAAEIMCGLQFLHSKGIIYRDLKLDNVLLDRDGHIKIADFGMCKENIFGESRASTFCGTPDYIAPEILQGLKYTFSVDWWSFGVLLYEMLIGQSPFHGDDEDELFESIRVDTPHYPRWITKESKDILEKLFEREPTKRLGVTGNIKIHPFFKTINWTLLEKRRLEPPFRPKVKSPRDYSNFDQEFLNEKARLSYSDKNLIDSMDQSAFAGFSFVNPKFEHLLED
Summary of the method: as §1

TIE1 = TIE1 (Homo sapiens, UniProt P35590); test: biochemical; set-up: KINOMEscan competition binding panel, per cent of control; details: read-out: %Ctrl @ 2800nM
Chain of TIE1 (P35590 whole entry): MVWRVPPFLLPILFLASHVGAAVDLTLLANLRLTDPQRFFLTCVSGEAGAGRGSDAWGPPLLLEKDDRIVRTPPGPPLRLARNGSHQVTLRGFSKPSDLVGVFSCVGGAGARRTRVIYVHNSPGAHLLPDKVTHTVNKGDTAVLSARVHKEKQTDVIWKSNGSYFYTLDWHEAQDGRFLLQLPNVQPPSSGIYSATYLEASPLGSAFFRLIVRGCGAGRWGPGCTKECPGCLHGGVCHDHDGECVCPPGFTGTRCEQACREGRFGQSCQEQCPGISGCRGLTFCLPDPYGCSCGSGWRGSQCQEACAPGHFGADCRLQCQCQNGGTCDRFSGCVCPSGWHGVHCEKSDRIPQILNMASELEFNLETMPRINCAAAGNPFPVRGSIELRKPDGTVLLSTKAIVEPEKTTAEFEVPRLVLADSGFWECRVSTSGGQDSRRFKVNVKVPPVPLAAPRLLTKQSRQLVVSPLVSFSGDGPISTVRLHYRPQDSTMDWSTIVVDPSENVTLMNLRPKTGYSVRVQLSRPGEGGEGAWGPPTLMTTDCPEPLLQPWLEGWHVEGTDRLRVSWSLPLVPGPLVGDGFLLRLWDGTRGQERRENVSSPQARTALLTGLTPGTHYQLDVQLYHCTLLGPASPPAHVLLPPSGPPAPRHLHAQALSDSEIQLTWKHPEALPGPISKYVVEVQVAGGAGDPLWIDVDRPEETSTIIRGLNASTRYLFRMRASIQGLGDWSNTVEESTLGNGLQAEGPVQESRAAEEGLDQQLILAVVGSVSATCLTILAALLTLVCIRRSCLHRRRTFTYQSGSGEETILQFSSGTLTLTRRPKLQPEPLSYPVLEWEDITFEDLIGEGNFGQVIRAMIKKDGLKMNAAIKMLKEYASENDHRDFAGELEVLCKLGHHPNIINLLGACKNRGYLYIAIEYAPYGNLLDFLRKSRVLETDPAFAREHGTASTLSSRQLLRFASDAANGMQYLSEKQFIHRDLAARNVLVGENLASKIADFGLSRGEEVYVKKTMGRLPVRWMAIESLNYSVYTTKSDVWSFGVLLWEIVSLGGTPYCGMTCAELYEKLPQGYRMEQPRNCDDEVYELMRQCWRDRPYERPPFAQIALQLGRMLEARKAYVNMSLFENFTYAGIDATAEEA
Summary of the method: as §1

PKNB(M.tuberculosis) = PKNB(M.tuberculosis) (Mycobacterium tuberculosis, UniProt P9WI81); test: biochemical; set-up: KINOMEscan competition binding panel, per cent of control; details: read-out: %Ctrl @ 2800nM
Chain of PKNB(M.tuberculosis) (P9WI81 whole entry): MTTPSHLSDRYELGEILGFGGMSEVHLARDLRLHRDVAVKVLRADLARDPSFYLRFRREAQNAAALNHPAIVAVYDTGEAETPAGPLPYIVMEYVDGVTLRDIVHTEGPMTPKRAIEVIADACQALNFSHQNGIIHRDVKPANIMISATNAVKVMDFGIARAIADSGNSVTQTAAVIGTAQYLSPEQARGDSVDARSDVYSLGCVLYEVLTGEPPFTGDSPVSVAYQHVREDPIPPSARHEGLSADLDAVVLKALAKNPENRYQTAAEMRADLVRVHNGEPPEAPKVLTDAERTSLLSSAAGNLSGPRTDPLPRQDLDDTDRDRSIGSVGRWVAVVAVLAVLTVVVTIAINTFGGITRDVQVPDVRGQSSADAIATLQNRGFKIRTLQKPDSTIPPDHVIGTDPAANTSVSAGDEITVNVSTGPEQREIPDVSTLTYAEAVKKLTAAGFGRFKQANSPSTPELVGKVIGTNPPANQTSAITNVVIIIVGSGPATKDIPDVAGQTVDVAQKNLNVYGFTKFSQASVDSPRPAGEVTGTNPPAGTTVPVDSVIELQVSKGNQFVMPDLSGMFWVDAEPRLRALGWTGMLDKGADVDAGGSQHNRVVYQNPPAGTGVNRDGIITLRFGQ

T1 sequence (Q01959 whole entry): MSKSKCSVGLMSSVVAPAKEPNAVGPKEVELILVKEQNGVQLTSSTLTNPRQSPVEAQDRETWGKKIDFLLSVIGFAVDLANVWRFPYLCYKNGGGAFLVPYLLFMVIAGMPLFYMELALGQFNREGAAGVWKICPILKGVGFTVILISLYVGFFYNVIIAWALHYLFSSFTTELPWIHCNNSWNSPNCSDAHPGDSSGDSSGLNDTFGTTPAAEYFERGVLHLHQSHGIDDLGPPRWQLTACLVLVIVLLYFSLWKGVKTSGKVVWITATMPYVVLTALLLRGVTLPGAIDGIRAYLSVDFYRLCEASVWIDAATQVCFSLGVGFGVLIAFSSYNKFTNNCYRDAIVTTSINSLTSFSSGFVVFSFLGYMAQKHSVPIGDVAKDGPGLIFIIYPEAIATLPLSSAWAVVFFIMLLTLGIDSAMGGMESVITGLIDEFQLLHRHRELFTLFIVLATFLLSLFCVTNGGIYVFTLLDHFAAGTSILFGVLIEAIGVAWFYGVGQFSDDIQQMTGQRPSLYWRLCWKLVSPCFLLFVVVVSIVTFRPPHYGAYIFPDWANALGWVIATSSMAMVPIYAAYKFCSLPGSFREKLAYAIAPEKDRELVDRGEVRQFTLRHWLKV

Structure (SMILES): [O-][S@@+](Cc1cncs1)C(c1ccccc1)c1ccccc1 [S-CE-123, (S)-5-((Benzhydrylsulfinyl)Methyl)Thiazole]
- Ki [1]: 610 nM
- remaining binding at 2.8 µM (ERK5): 91%
- remaining binding at 2.8 µM (PRKCD): 89%
- remaining binding at 2.8 µM (TIE1): 100%
- remaining binding at 2.8 µM (PKNB(M.tuberculosis)): 96%
